Reference: article PMC6642134, “Dopey1-Mon2 complex binds to dual-lipids and recruits kinesin-1 for membrane trafficking” (Nature Communications, 2019)

T1: GST-DEC (Dopey1 extreme C-terminal region) (Homo sapiens, UniProt B2RWN9)
T1 construct: DEC domain, residues 2146-2456, N-terminal GST fusion kept, E. coli BL21 DE3, detergent-free; dimeric through GST
T1 sequence (B2RWN9 2146-2456): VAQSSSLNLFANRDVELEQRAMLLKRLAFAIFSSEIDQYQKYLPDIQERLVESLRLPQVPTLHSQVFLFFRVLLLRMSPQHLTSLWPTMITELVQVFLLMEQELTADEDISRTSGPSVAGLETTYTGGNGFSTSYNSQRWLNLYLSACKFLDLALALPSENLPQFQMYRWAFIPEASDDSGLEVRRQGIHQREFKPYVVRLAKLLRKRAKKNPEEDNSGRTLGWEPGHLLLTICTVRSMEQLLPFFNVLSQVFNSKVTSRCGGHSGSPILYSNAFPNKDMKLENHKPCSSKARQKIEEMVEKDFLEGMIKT


Assays:
[1] = biological target: T1, GST-DEC (Dopey1 extreme C-terminal region); assay: liposome pull-down with diluted protein, Western blot; format: binding; details: read-out: apparent affinity
[2] = biological target: the molecule itself; assay: single-molecule photo-bleaching steps (TIRF microscopy); GFP-fusion protein in HEK293T lysate (20 mM Tris pH 7.4) immobilised on a glass coverslip; photo-bleaching steps counted; expressed alone

Molecule	Kd [1] [µM]	stoichiometry N [2]
PI4P	~1	–
Mon2, full length, transfected (natural protein, UniProt Q7Z3U7 1-1717, looked up, Mon2, full length; One molecule for the differently tagged copies (GFP-Mon2 and DMyc-Mon2 in the self co-IP); GFP-Mon2 in photo-bleaching; DMyc-Mon2 co-expressed with GFP-Dopey1; also called GFP-Mon2; DMyc-Mon2; source: HEK293T, transfected, in lysate; HeLa, transfected (imaging); not shown: GFP or DMyc or another fluorescence protein (by experiment), N-terminal, kept) MSGTSSPEAVKKLLENMQSDLRALSLECKKKFPPVKEAAESGIIKVKTIAARNTEILAALKENSSEVVQPFLMGCGTKEPKITQLCLAAIQRLMSHEVVSETAAGNIINMLWQLMENSLEELKLLQTVLVLLTTNTVVHDEALSKAIVLCFRLHFTKDNITNNTAAATVRQVVTVVFERMVAEDERHRDIIEQPVLVQGNSNRRSVSTLKPCAKDAYMLFQDLCQLVNADAPYWLVGMTEMTRTFGLELLESVLNDFPQVFLQHQEFSFLLKERVCPLVIKLFSPNIKFRQGSSTSSSPAPVEKPYFPICMRLLRVVSVLIKQFYSLLVTECEIFLSLLVKFLDADKPQWLRAVAVESIHRFCVQPQLLRSFCQSYDMKQHSTKVFRDIVNALGSFIQSLFLVPPTGNPATSNQAGNNNLGGSVSAPANSGMVGIGGGVTLLPAFEYRGTWIPILTITVQGSAKATYLEMLDKVEPPTIPEGYAMSVAFHCLLDLVRGITSMIEGELGELETECQTTTEEGSSPTQSTEQQDLQSTSDQMDKEIVSRAVWEEMVNACWCGLLAALSLLLDASTDEAATENILKAELTMAALCGRLGLVTSRDAFITAICKGSLPPHYALTVLNTTTAATLSNKSYSVQGQSVMMISPSSESHQQVVAVGQPLAVQPQGTVMLTSKNIQCMRTLLNLAHCHGAVLGTSWQLVLATLQHLVWILGLKPSSGGALKPGRAVEGPSTVLTTAVMTDLPVISNILSRLFESSQYLDDVSLHHLINALCSLSLEAMDMAYGNNKEPSLFAVAKLLETGLVNMHRIEILWRPLTGHLLEVCQHPNSRMREWGAEALTSLIKAGLTFNHDPPLSQNQRLQLLLLNPLKEMSNINHPDIRLKQLECVLQILQSQGDSLGPGWPLVLGVMGAIRNDQGESLIRTAFQCLQLVVTDFLPTMPCTCLQIVVDVAGSFGLHNQELNISLTSIGLLWNISDYFFQRGETIEKELNKEEAAQQKQAEEKGVVLNRPFHPAPPFDCLWLCLYAKLGELCVDPRPAVRKSAGQTLFSTIGAHGTLLQHSTWHTVIWKVLFHLLDRVRESSTTADKEKIESGGGNILIHHSRDTAEKQWAETWVLTLAGVARIFNTRRYLLQPLGDFSRAWDVLLDHIQSAALSKNNEVSLAALKSFQEILQIVSPVRDSDKPETPPVVNVPVPVLIGPISGMSRPFVRTDSIGEKLGRYSSSEPPIVTDELEDLNLWWAAWNTWYRIGSESTKPPITFDKLTFIPSQPFLTALIQIFPALYQHIKTGFNMDDLQKLGVILHSAISVPISSDASPFILPSYTEAVLTSLQEAVLTALDVLQKAICVGPENMQIMYPAIFDQLLAFVEFSCKPPQYGQLETKHIANAKYNQIQLFAPAEWVALNYVPFAERSLEVVVDLYQKTACHKAVVNEKVLQNIIKTLRVPLSLKYSCPSESTWKLAVSSLLRVLSIGLPVARQHASSGKFDSMWPELANTFEDFLFTKSIPPDNLSIQEFQRNENIDVEVVQLISNEILPYANFIPKEFVGQIMTMLNKGSIHSQSSSFTEAEIDIRLREEFSKMCFETLLQFSFSNKVTTPQEGYISRMALSVLLKRSQDVLHRYIEDERLSGKCPLPRQQVTEIIFVLKAVSTLIDSLKKTQPENVDGNTWAQVIALYPTLVECITCSSSEVCSALKEALVPFKDFMQPPASRVQNGES	–	2
